Experimental data: the supplement of paper PMC11208160

Assay: recombinant barcode read abundance after kanamycin selection (control-corrected) (log10(CPM+1)); higher = more efficient recombination; sequences stand for … in AGTGCAGAGAAAATCGGCCAGTTTTCTCTGCCTGCAGTCCGCATGCCGT…AGATTTATGCAGCGGACTGCCTTTCTCCCAAAGTGATAAACCGGACAGTATCATGGACCGGTTTTCCCGGTAATCCGTATTTGCAAGGTTGGTTTCACT; site = the 11-nt target
Summary of the method: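 Targets were screened in pooled form in E. coli against IS621 bridge RNA target-binding loops. Recombination efficiency is based on barcode counts at recombinant junctions in counts per million, averaged and corrected for the control. Numbers are shown as log10(CPM+1), with duplicate plates on chloramphenicol/ampicillin LB agar (control) or chloramphenicol/ampicillin/kanamycin with 0.1 mM IPTG.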
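Also: IS621 recombinase and bridge RNA in Escherichia coli cells.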

| Sequence | recombinant barcode read abundance (log10) |
| --- | --- |
| GGTATGTCTTGGGTTCTAACCTGTTGCCT (site GGTATGTCTAG) | 1.96 |
| GGTATGTCTTGGGTTCTAACCTGTTGCCT (site TGTATGTCTAG) | 0.106 |
| GGTCATTCTTGGGTTCTAACCTGTTGCCT (site GGTCATACTAG) | 0.0311 |
| GGTCATTCTTGGGTTCTAACCTGTTGCCT (site GGTCATCCTAG) | 0.157 |
| GGTCATTCTTGGGTTCTAACCTGTTGCCT (site GGTCATGCTAG) | 0.0124 |
| GGTCATTCTTGGGTTCTAACCTGTTGCCT (site GGTCATTCTAG) | 0.626 |
| GGTCGGACTTGGGTTCTAACCTGTTGCCA (site GGACGGACTTG) | 0.281 |
| GGTCGGACTTGGGTTCTAACCTGTTGCCA (site GGTCGGACTTG) | 0.548 |
| GGTCGGACTTGGGTTCTAACCTGTTGCGT (site GGAGGGACTAC) | 0.0819 |
| GGTCGGACTTGGGTTCTAACCTGTTGCGT (site GGTCGGACTAC) | 2.17 |
| GGTCGTACTTGGGTTCTAACCTGTTGCCT (site CCGTTGTCTTA) | 0.177 |
| GGTCGTACTTGGGTTCTAACCTGTTGCCT (site GGTCGTACTAG) | 0.286 |
| GGTGAGCCTTGGGTTCTAACCTGTTGCGT (site CACACTACTCA) | 0.0427 |
| GGTGAGCCTTGGGTTCTAACCTGTTGCGT (site GGTGAGCCTAC) | 2.68 |
| GGTGCCTCTTGGGTTCTAACCTGTTGCAT (site GGGGCCTCTCT) | 0.258 |
| GGTGCCTCTTGGGTTCTAACCTGTTGCAT (site GGTGCCTCTAT) | 1.46 |
| GGTGCGGCTTGGGTTCTAACCTGTTGCCT (site AGTGCGGCTAG) | 0.492 |
| GGTGCGGCTTGGGTTCTAACCTGTTGCCT (site CGTGCGGCTAG) | 0.139 |
| GGTGCGGCTTGGGTTCTAACCTGTTGCCT (site GGTGCGGCTAG) | 0.494 |
| GGTGCGGCTTGGGTTCTAACCTGTTGCCT (site TGTGCGGCTAG) | 0.505 |

| Sequence | recombinant barcode read abundance (log10) |
| --- | --- |
| GGTGGATCTTGGGTTCTAACCTGTTGCCT (site GGTGACTCTAG) | 0.0125 |
| GGTGGATCTTGGGTTCTAACCTGTTGCCT (site GGTGGATCTAG) | 0.813 |
| GGTGGCTCTTGGGTTCTAACCTGTTGCCA (site GGTGGCTCTTG) | 0.607 |
| GGTGGCTCTTGGGTTCTAACCTGTTGCCA (site TAATCTCCTAC) | 0.0407 |
| GGTGGGTCTTGGGTTCTAACCTGTTGCAT (site GGTGGGTCTAA) | 0.345 |
| GGTGGGTCTTGGGTTCTAACCTGTTGCAT (site GGTGGGTCTAC) | 0.128 |
| GGTGGGTCTTGGGTTCTAACCTGTTGCAT (site GGTGGGTCTAG) | 0.805 |
| GGTGGGTCTTGGGTTCTAACCTGTTGCAT (site GGTGGGTCTAT) | 2.25 |
| GGTGGGTCTTGGGTTCTAACCTGTTGCCT (site GGTGGGTCTAA) | 0.123 |
| GGTGGGTCTTGGGTTCTAACCTGTTGCCT (site GGTGGGTCTAC) | 0.123 |
| GGTGGGTCTTGGGTTCTAACCTGTTGCCT (site GGTGGGTCTAG) | 1.29 |
| GGTGGGTCTTGGGTTCTAACCTGTTGCCT (site GGTGGGTCTAT) | 0.382 |
| GGTTCCTCTTGGGTTCTAACCTGTTGCCT (site GGATCGTCTAG) | 0.0714 |
| GGTTCCTCTTGGGTTCTAACCTGTTGCCT (site GGTTCCTCTAG) | 1.11 |
| GGTTCTCCTTGGGTTCTAACCTGTTGCCT (site AGTTCTCCTAG) | 0.0625 |
| GGTTCTCCTTGGGTTCTAACCTGTTGCCT (site CGTTCTCCTAG) | 0.0451 |
| GGTTCTCCTTGGGTTCTAACCTGTTGCCT (site GGTTCTCCTAG) | 0.288 |
| GGTTCTCCTTGGGTTCTAACCTGTTGCCT (site TGTTCTCCTAG) | 0.0347 |
| GGTTCTTCTTGGGTTCTAACCTGTTGCCT (site GATTCTTCTAG) | 0.12 |
| GGTTCTTCTTGGGTTCTAACCTGTTGCCT (site GCTTCTTCTAG) | 0.0288 |

| Sequence | recombinant barcode read abundance (log10) |
| --- | --- |
| GGTTCTTCTTGGGTTCTAACCTGTTGCCT (site GGTTCTTCTAG) | 0.344 |
| GGTTCTTCTTGGGTTCTAACCTGTTGCCT (site GTTTCTTCTAG) | 0.19 |
| GGTTGACCTTGGGTTCTAACCTGTTGCGG (site GGTTGACCTCC) | 1.51 |
| GGTTGACCTTGGGTTCTAACCTGTTGCGG (site GGTTGCCCTCC) | 0.0589 |
| GGTTGACCTTGGGTTCTAACCTGTTGCGG (site GGTTGGCCTCC) | 0.0632 |
| GGTTGACCTTGGGTTCTAACCTGTTGCGG (site GGTTGTCCTCC) | 0.0522 |
| GGTTGCCCTTGGGTTCTAACCTGTTGCGG (site GGTTGACCTCC) | 0.295 |
| GGTTGCCCTTGGGTTCTAACCTGTTGCGG (site GGTTGCCCTCC) | 0.946 |
| GGTTGCCCTTGGGTTCTAACCTGTTGCGG (site GGTTGGCCTCC) | 0.0682 |
| GGTTGCCCTTGGGTTCTAACCTGTTGCGG (site GGTTGTCCTCC) | 0.0903 |
| GGTTGTCCTTGGGTTCTAACCTGTTGCCT (site GGTGGTCCTAG) | 0.253 |
| GGTTGTCCTTGGGTTCTAACCTGTTGCCT (site GGTTGTCCTAG) | 0.328 |
| GGTTGTCCTTGGGTTCTAACCTGTTGCGG (site GGTTGACCTCC) | 0.237 |
| GGTTGTCCTTGGGTTCTAACCTGTTGCGG (site GGTTGCCCTCC) | 0.0684 |
| GGTTGTCCTTGGGTTCTAACCTGTTGCGG (site GGTTGGCCTCC) | 0.109 |
| GGTTGTCCTTGGGTTCTAACCTGTTGCGG (site GGTTGTCCTCC) | 1.2 |
| GGTTGTCCTTGGGTTCTAACCTGTTGCTA (site GATTGTCCTAA) | 0.182 |
| GGTTGTCCTTGGGTTCTAACCTGTTGCTA (site GGTTGTCCTTA) | 0.181 |
| GGTTTAGCTTGGGTTCTAACCTGTTGCTA (site GGTTTAGCTTA) | 0.106 |
